Data set [1] deals with T1, Adenylate cyclase type 10 (Homo sapiens, UniProt Q96PN6).
The target in data set [2] is Adenylate cyclase type 10 (Rattus norvegicus, UniProt Q9Z286). Nature of the data set: Inhibition of rat ADCY10 overexpressed […] assessed as IBMX stimulated cAMP accumulation preincubated for 10 mins followed by IBMX stimulation and measured after 5 mins by ELISA. The data set is classed as cell-based, 4-4 cell.
A short description of data set [3]: AUC(0 to 24 hrs) in CD-1 mouse at 2 mg/kg,iv and measured upto 24 hrs by LC-MS analysis. It is filed as ADME, organism-based. On the set-up: dose 2 mg/kg, time < 24 hrs, route iv. The settings on record: in vivo.
A short description of data set [4]: Cmax in CD-1 mouse at 2 mg/kg,iv and measured upto 24 hrs by LC-MS analysis. The data set is classed as ADME, organism-based. On the set-up: time < 24 hrs, dose 2 mg/kg, route iv. The settings on record: in vivo.
Data set [5] in a line: Half life in CD-1 mouse at 2 mg/kg,iv and measured upto 24 hrs by LC-MS analysis. It is filed as ADME, organism-based. The settings on record: in vivo.
Data set [6] can be described thus: AUC(0 to 24 hrs) in CD-1 mouse at 10 mg/kg,po and measured upto 24 hrs by LC-MS analysis. It is filed as ADME, organism-based. On the set-up: time < 24 hrs, dose 10 mg/kg, route po. Particulars: in vivo.
Data set [7] can be described thus: Cmax in CD-1 mouse at 10 mg/kg,po and measured upto 24 hrs by LC-MS analysis. It is filed as ADME, organism-based. Particulars: in vivo. On the set-up: dose 10 mg/kg, time < 24 hrs, route po.
Data set [8] in a line: Tmax in CD-1 mouse at 10 mg/kg,po and measured upto 24 hrs by LC-MS analysis. It is filed as ADME, organism-based. The settings on record: in vivo.
The nature of data set [9]: Oral bioavailability in CD-1 mouse at 10 mg/kg and measured upto 24 hrs by LC-MS analysis. The data set is classed as ADME, organism-based. Particulars: in vivo.
The nature of data set [10]: AUC(0 to 24 hrs) in CD-1 mouse at 50 mg/kg,po and measured upto 24 hrs by LC-MS analysis. The settings on record: in vivo. On the set-up: time < 24 hrs, dose 50 mg/kg, route po. It is filed as ADME, organism-based.
A short description of data set [11]: Cmax in CD-1 mouse at 50 mg/kg,po and measured upto 24 hrs by LC-MS analysis. It is filed as ADME, organism-based. On the set-up: time < 24 hrs, dose 50 mg/kg, route po. The settings on record: in vivo.
The nature of data set [12]: Tmax in CD-1 mouse at 50 mg/kg,po and measured upto 24 hrs by LC-MS analysis. The data set is classed as ADME, organism-based. Particulars: in vivo.
Data set [13] is described as follows: Permeability of compound at pH 7.4 at 10 uM incubated for 3 hrs by PAMPA based LC/MS/MS analysis. The settings on record: pH 7.4, 3 h. It is filed as ADME. A general note: PAMPA measures passive passage across an artificial lipid membrane.
Data set [14] in a line: 1-Octanol/water partition coefficient, logD of the compound at pH 7.4 by chromatographic analysis. It is filed as physicochemical.
A short description of data set [15]: Kinetic solubility of compound by UV spectroscopy analysis. Particulars: read-out: Kinetic_solubility. The data set is classed as physicochemical.
Data set [16] is described as follows: Cytotoxicity against […] at <20 uM. It is filed as toxicity, cell-based. Particulars: 4-4 cell.
The target in data set [17] is T1, Adenylate cyclase type 10. The source holds these as a separate data set.
Description: Binding affinity to human recombinant His-tagged ADCY10 assessed as dissociation constant and measured for 600 sec by SPR analysis

These results are taken from ChEMBL document CHEMBL5214996, “Design, Synthesis, and Pharmacological Evaluation of Second-Generation Soluble Adenylyl Cyclase (sAC, ADCY10) Inhibitors with Slow Dissociation Rates” (J Med Chem, 2022).

In brackets after ≈: the same amount, converted by molar mass.

Adenylate cyclase type 10 (Rattus norvegicus, UniProt Q9Z286), sequence (Q9Z286 whole entry): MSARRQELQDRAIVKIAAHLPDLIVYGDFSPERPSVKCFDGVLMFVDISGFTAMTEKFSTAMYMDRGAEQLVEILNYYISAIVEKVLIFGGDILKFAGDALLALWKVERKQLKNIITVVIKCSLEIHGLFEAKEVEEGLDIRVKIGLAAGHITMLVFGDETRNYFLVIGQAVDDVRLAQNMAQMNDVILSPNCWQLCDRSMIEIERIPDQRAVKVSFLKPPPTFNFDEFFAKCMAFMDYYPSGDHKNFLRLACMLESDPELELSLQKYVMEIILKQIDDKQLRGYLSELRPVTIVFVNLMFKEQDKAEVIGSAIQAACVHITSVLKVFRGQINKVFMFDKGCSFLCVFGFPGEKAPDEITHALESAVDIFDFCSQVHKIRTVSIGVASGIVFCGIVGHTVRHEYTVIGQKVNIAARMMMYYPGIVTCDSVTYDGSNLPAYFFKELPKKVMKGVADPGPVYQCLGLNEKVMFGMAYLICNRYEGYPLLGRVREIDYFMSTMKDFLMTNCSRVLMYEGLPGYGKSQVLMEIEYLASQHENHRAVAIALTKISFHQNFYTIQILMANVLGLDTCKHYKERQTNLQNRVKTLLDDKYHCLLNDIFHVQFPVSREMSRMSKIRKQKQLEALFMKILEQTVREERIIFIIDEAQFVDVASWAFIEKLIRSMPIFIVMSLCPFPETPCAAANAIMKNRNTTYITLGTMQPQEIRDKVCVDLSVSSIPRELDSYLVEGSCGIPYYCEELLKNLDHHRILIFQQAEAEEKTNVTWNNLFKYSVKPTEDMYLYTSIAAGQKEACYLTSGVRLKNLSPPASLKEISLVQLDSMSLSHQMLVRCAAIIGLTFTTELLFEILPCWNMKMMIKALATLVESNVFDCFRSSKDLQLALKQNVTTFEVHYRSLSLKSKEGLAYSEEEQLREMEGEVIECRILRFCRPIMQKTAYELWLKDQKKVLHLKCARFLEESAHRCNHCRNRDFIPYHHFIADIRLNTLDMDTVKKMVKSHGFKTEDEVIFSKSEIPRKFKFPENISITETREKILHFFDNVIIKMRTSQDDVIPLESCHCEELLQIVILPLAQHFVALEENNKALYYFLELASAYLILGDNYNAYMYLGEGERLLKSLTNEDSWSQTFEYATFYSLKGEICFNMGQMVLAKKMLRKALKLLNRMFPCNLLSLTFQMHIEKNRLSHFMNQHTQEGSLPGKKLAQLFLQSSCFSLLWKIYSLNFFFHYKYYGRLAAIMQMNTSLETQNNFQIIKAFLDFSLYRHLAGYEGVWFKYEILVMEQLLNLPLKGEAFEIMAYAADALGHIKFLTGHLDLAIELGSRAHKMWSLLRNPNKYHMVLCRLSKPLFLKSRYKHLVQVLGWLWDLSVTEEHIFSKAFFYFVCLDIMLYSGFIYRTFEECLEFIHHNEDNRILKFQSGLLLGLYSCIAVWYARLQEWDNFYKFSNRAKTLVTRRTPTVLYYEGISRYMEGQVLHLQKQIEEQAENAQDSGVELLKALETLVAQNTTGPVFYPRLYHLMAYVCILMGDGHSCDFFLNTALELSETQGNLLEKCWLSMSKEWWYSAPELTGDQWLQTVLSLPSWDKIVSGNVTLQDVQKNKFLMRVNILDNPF
T1 sequence (Q96PN6 whole entry): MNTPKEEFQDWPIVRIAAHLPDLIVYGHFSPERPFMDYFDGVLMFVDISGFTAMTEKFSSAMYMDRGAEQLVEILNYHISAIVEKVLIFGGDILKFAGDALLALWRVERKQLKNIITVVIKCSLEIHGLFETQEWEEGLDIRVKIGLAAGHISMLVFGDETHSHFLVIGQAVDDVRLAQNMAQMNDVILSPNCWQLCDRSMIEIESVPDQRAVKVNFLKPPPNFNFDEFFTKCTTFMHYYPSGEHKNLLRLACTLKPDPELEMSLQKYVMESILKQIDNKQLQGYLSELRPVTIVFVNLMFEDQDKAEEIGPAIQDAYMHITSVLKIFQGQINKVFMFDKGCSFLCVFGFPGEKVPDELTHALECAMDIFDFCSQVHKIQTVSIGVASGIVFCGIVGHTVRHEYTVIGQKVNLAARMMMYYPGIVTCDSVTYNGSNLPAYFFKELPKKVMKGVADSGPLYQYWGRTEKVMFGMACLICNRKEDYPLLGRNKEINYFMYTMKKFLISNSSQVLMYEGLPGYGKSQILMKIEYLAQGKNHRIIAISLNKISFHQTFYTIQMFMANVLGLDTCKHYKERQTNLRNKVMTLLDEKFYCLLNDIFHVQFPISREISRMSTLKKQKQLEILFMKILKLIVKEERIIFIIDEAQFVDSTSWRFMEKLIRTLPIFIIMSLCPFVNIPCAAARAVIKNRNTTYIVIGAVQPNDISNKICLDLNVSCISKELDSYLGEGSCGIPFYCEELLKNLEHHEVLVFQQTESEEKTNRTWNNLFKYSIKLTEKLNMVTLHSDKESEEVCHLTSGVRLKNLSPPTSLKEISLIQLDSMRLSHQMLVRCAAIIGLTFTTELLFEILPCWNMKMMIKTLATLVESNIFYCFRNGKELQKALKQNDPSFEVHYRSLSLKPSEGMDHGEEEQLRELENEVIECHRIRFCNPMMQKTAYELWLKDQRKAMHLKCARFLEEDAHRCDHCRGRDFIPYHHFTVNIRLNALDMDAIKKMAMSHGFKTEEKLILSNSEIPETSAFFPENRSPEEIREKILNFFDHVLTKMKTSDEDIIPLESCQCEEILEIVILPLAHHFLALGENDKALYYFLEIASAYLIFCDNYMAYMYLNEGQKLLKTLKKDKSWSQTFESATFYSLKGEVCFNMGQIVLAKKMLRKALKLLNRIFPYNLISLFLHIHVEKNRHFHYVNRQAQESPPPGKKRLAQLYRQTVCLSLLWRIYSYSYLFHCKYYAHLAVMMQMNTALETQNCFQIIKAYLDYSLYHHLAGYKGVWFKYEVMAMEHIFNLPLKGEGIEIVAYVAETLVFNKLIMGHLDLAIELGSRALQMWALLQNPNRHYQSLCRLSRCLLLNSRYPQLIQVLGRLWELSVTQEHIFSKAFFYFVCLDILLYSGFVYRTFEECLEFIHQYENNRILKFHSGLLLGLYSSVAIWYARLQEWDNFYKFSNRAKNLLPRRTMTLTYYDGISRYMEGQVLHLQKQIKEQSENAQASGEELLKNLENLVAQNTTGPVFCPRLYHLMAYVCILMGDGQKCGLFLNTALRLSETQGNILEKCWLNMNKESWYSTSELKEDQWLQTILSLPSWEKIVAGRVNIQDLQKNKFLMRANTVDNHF

Molecule `Nc1nc(Cl)cc(-c2nn(C(F)F)cc2Cc2ccccc2)n1` came in with an IC50 in data set [1] of 829 nM. Regarding `Nc1nc(Cl)cc(-c2nn(C(F)F)cc2Cc2ccccc2OCCN2CCS(=O)(=O)CC2)n1`, the IC50 in [2] turned out to be 14.6 nM. In the case of `Nc1nc(Cl)cc(-c2nn(C(F)F)cc2Cc2ccccc2OCCN2CCOCC2)n1`, the IC50 in data set [2] is 1.9 nM. Same read-out and setting: the same measure for `CC1(O)CCN(CCOc2ccccc2Cc2cn(C(F)F)nc2-c2cc(Cl)nc(N)n2)CC1`: 16.7 nM. Regarding `CNC(=O)c1ccccc1Cc1cn(C)nc1-c1cc(Cl)nc(N)n1`, inhibition in data set [1] was half-maximal at 1240 nM (IC50). Consider `Nc1nc(Cl)cc(-c2nn(C(F)F)cc2Cc2ccccc2OCCN2CCNC(=O)C2)n1`, for which the IC50 in [2] turned out to be 5.5 nM. In turn, `Nc1nc(Cl)cc(-c2nc3ccccn3c2Cc2ccccc2)n1` yielded an IC50 in data set [1] of 716 nM. Consider `Cn1cc(Cc2cccc(Cl)c2)c(-c2cc(Cl)nc(N)n2)n1`, for which the IC50 in data set [1] is 389 nM. Regarding `Nc1nc(Cl)cc(-c2nn3ccccc3c2Cc2ccccc2)n1`, the midpoint of inhibition in data set [1], the IC50, lay at 112 nM. Take `Nc1nc(Cl)cc(-c2nn(C(F)F)cc2Cc2ccccc2OCCN2CCO[C@H](CO)C2)n1`: the IC50 in [2] was 22.9 nM. For `Nc1nc(Cl)cc(-c2nn(C(F)F)cc2Cc2ccccc2OCCN2CCO[C@@H](CO)C2)n1`, the IC50 in data set [2] stood at 34.8 nM. For the molecule `CNC(=O)c1cccc(Cc2cn(C)nc2-c2cc(Cl)nc(N)n2)c1`, in [1], the IC50 came out at 1880 nM. In the case of `Nc1nc(Cl)cc(-c2nn(C(F)F)cc2Cc2ccccc2OCCN2CCOC[C@H]2CO)n1`, the area under the curve (AUC) turned out to be 0.78 µM·h in data set [3], 0.41 µM·h in data set [6] and 5.46 µM·h in [10]. Further, the Cmax in [4] stood at 2500 nM; in data set [7], 450 nM; in data set [11], 6100 nM. The molecule further registered a t1/2 in data set [5] of 55.8 min. Besides, the Tmax in [8] and in [12] was 15 min throughout. In addition, the F in data set [9] turned out to be 11%. The molecule also gave a permeability in data set [13] of 46.3 ×10⁻⁶ cm/s. Besides, the logD in [14] came out at 2.89. In addition, the solubility kinetic in [15] came out at 79 µg/mL (≈ 160 µM). Besides, the Activity entry in data set [16] was “Non-Toxic”. With `COc1ccccc1Cc1cn(C)nc1-c1cc(Cl)nc(N)n1`, the IC50 in data set [1] was determined as 67 nM. Regarding `Cn1cc(Cc2ccc(Cl)cc2)c(-c2cc(Cl)nc(N)n2)n1`, 2580 nM corresponded to half-maximal inhibition in [1] (IC50). On to `Nc1nc(Cl)cc(-c2nn(C(F)F)cc2Cc2ccccc2OCC(=O)N2CCOCC2)n1`, for which the values for the IC50 in data set [2] and in data set [1] were 37.7 nM and 24.2 nM, respectively. Moreover, the Kd in [17] came to 4.7 nM. For `COC(=O)[C@H]1COCCN1CCOc1ccccc1Cc1cn(C(F)F)nc1-c1cc(Cl)nc(N)n1`, the IC50 in [2] came to 2.5 nM. On to `Cn1cc(Cc2ccccc2Cl)c(-c2cc(Cl)nc(N)n2)n1`, for which the midpoint of inhibition in data set [1], the IC50, lay at 64 nM.

The term IC50 denotes the point on the concentration scale where inhibition reaches its midpoint. As usually defined, the AUC is concentration integrated over time. Read a high AUC as high exposure. Broadly, the Cmax is the maximum level reached in the sampled fluid or tissue. What is called Tmax is the time from dosing to the highest level. One may read the logD as the decadic logarithm of the distribution of all forms, ionised or not, between an organic phase and buffer at a given pH. Lower therefore signals a more hydrophilic compound. The term Kd denotes the equilibrium constant for the complex coming apart. A lower Kd goes with a tighter complex.
